Data on three compounds can be found in US7384915B2, “Chimeric insulin-gad proteins for treating patients with type 1 diabetes or at risk of developing type 1 diabetes” (Alexion Pharmaceuticals, Inc., priority 1997, dated 2008).

Where two headings read alike, the source gives them in different places.

In assay [1] the test system is non-diabetic male NOD recipients. How it is done: CYTOXAN induction experiments: CYTOXAN (Cyclophosphamide) treatment can increase the incidence and accelerate the onset of diabetes in non-diabetic NOD mice. Randomly selected, non-diabetic male NOD mice, which were 100 to 110 days of age, were injected (ip) with cyclophosphamide (250 mg/kg) on day 0.
All the mice were subjected to urine glucose measurement 2-3 times per week for a period of 21 days after cyclophosphamide injection. The onset of diabetes was recorded as the first point at which two consecutive days of positive urine glucose results were obtained. Blood glucose was also measured to confirm the urine glucose results. […] At day 21, these mice were sacrificed and examined histologically.

Assay [2] deals with NOD/SCID mice injected with diabetogenic spleen cells. Kind of assay: NOD/SCID adoptive transfer model of IDDM. The class given is in vivo, mouse. The conditions noted are these: IV, 300 ugs of antigen twice daily every other day, day 3 to day 9 after spleen cell transfer; FIG. 5. How it is done: Experiments in the NOD/SCID Adoptive Transfer Model: Spleen mononuclear cells were harvested from diabetic NOD mice of recent disease onset (diabetic not more than 3 weeks) and about 35×10^6 of these spleen cells in 0.2 ml of PBS were injected intravenously into 6-8 week old NOD/SCID mice. Onset of diabetes was monitored biweekly by urine glucose testing and confirmed by blood glucose testing on day 28 relative to the time of spleen cell transfer. At day 28, these mice were sacrificed and examined histologically.
Diabetogenic splenic mononuclear cells were harvested from newly diabetic NOD mice (onset less than 3 weeks previous). To initiate the destruction of islet beta cells and the development of diabetes, 8-12 week old NOD/SCID mice were injected intravenously with 35×10^6 diabetogenic spleen cells. The incidence and onset of diabetes were monitored biweekly by urine glucose testing and confirmed by blood glucose testing at the end of the experiment. The average onset time of diabetes after disease induction was approximately 25 days. IV treatment with IG2, IG3, or islet beta cell antigens was initiated on day 3. Animals were treated with 300 ugs of antigen twice daily every other day for a period of six days (from day 3 to day 9, where the time of spleen cell transfer was day 0).

Assay [3] deals with non-diabetic male NOD mice. Kind of assay: CYTOXAN (cyclophosphamide) induced IDDM model, antigen treatment. It is filed as in vivo, mouse. The conditions noted are these: FIG. 3. From the text:
Experimental Methods Non-obese diabetic (NOD) mice are a strain of mice that are prone to the development of diabetes, and represent an accepted model system for the study of diabetes mellitus. These mice, designated NOD/MrkTacfBR, were purchased from Taconic Farms (Germantown, N.Y.). NOD SCID mice, designated NOD/SCID, are available from the Jackson Laboratories, Bar Harbor, Me. The incidence of diabetes by 200 days of age in these mice is 80% in females and 50% in males. At 110 days of age, fewer than 15% of the male NOD mice became diabetic. […] In contrast, animals treated with either ICB or either of GAD 65 250-273 or 520-555 peptides, experienced reductions to less than 50% incidence of diabetes. The therapeutic effects of treatment with combinations of ICB and the two GAD peptides were then examined (FIG. 3).

As to `O=P1(N(CCCl)CCCl)NCCCO1` (centres unmarked) [CYTOXAN, cyclophosphamide], in assay [1] (CYTOXAN 200 mg/kg), the “# Diabetic/Total” value is 2/7, the “% diabetic” value was determined as 28.6% and the Mean onset time is given as 12. In assay [1] (CYTOXAN 250 mg/kg), the “# Diabetic/Total” value is reported as 5/7, the “% diabetic” value amounted to 71.4% and the Mean onset time came out at 11. Also, in assay [1] (CYTOXAN 300 mg/kg), the “# Diabetic/Total” value was 5/7, the “% diabetic” value is recorded as 71.4% and the Mean onset time came out at 12.6.
Take “ICB: Oxidized bovine insulin Chain B purchased from Sigma (catalog no. I-6383)”: the “onset of disease in NOD/SCID recipients” value in assay [2] is “only a slight delay in disease onset”.
As for “GAD 65 520-555: human GAD 65 peptide 520-555, sequence corresponding to amino acid residues 139-173 of SEQ ID NO:2 (EERMSRLSKVAPVIKARMMEYGTTMVSYQPLGDKV; IG2 fusion protein for hGAD65 (human glutamate decarboxylase))”, the “effect of addition to the ICB with GAD 65 250-273 combination on therapeutic efficacy” value in assay [3] is “appeared to inhibit the therapeutic efficacy”.
